Values joined by “and” are separate entries in the source; they are usually repeats but may differ in a detail not shown here. Equal entries are not always repeated.
What was measured:
[1] = target: T1, MBP-MshC (Mycobacterium tuberculosis, UniProt P9WJM9); test: Confirmatory assay: CGI production by fluorescence-detected HPLC; type: biochemical
[2] = target: T1, MBP-MshC; test: MshC coupled luminescent assay; type: biochemical
[3] = target: T1, MBP-MshC; test: Mode of inhibition of dequalinium; type: biochemical
[4] = target: T1, MBP-MshC; test: Isothermal titration calorimetry with MBP-MshC; type: binding
[5] = target: MBP (Escherichia coli, UniProt P0AEX9); test: Isothermal titration calorimetry with MBP tag alone; type: binding; settings: ITC, 1-site model, 25 °C
[6] = tested on: N[C@@H](CS)C(=O)O; test: purified protein, by the assay type
[7] = IC50, quantitative CGI-HPLC confirmatory assay

T1 sequence (P9WJM9 whole entry, looked up): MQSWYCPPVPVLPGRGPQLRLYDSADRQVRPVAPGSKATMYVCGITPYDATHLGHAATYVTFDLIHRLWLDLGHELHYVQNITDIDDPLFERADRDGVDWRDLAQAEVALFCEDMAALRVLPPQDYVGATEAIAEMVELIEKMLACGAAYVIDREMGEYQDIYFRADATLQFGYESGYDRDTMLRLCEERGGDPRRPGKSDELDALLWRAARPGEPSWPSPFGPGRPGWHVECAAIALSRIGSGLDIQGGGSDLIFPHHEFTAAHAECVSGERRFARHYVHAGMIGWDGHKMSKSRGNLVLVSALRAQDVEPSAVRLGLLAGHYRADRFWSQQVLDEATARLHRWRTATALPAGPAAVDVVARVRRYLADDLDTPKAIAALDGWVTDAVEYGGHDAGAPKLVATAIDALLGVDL

Work on `Cc1cc(N)c2ccccc2[n+]1C` [1a, 1-methyl 4-aminoquinaldinium iodide] yielded an IC50 [1, 7] of 830 µM.

For `Nc1ncnc2c1ncn2[C@@H]1O[C@H](COS(=O)(=O)NC(=O)[C@@H](N)CS)[C@@H](O)[C@H]1O` [CysSA, 5′-O-[N-(L-cysteinyl)sulfamoyl] adenosine], the IC50 [2] was 0.24 ± 0.001 µM.

With `Cc1cc(N)c2ccccc2[n+]1CCCCCCCCCC[n+]1c(C)cc(N)c2ccccc21` [compound 1, dequalinium chloride] the IC50 [1, 7] was 24 µM and ~24 µM, the mode of inhibition ([3]; with respect to ATP (varied 31.3 to 4000 μM)) was “AT P-competitive inhibitor” and the mode of inhibition ([3]; with respect to GI (varied 34-1100 μM)) was “synergy”. For the same compound, the Kd [4] was 7.1 ± 0.8 µM and the Kd [5] was 8.5 µM and 7 to 8.5 µM.

Work on `C[n+]1ccc(Nc2ccc(NC(=O)c3ccc(Nc4cc[n+](C)c5ccc([N+](=O)[O-])cc45)cc3[N+](=O)[O-])cc2)cc1` [compound 2] yielded an IC50 ([1]; quantitative CGI-HPLC confirmatory assay) of roughly 500 µM.

In the case of “MBP-MshC (Mycobacterium tuberculosis H37Rv)”, the Km [6] is reported as 140 ± 40 µM and the Vmax [6] is reported as 85 ± 7 nmol/min/mg.

From PMC2796824 (Journal of biomolecular screening, 2009)
